# Experimental data as given in article PMC8280778, “^18F-ASEM Imaging for Evaluating Atherosclerotic Plaques Linked to α7-Nicotinic Acetylcholine Receptor” (Frontiers in Bioengineering and Biotechnology, 2021).
# Read-outs that look alike come from different tables or passages of the source.
# Assays:
# α7nAChR [1] = target: α7nAChR; set-up: method as in Gao et al., 2013; Wang et al., 2018; settings: affinity for α7nAChR; ref Gao et al., 2013; Wang et al., 2018; cited from earlier work
# [2] = biological distribution of the tracer in normal mice (dynamic PET); assay type: in vivo
# α7nAChR [3] = target: α7nAChR (Mus musculus, UniProt P49582)
# α7nAChR (Mus musculus, UniProt P49582), sequence (P49582 23-502): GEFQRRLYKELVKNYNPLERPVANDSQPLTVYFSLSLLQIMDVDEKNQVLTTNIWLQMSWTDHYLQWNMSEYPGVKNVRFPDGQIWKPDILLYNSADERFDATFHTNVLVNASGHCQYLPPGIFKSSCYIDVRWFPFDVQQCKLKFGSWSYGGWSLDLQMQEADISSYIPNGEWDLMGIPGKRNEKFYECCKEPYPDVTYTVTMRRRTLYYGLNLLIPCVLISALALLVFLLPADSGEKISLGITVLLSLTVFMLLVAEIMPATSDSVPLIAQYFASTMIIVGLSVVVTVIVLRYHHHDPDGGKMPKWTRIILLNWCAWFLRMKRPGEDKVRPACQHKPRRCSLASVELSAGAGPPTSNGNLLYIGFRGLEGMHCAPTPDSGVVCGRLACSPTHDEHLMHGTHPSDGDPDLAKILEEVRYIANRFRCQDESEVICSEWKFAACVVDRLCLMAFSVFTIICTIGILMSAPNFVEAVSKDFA
# Description: ApoE^–/– mice (n = 4; weight, 25–30 g) and normal mice (n = 4; weight, 25–30 g) were randomly selected; the chosen ApoE^–/– mice were fed with 21% fat and 0.15% cholesterol supplement for 11–12 weeks.
# The high-performance liquid chromatography (HPLC)-purified ^18F-ASEM [[…], dissolved in 0.2 ml normal saline, containing 5% dimethyl sulfoxide (DMSO)] was injected into tail vein of ApoE^–/– mice and normal mice. ApoE^–/– mice, positioned prone position, were anesthetized (1–2% isoflurane) through inhalation. After anesthesia, mice were injected with 5.56 MBq (150 μCi) ^18F-ASEM through the tail vein and underwent a dynamic imaging for 1 h. Dynamic PET scanning were carried out at 5, 10, 15, 30, and 60 min after injection, and biological distributions were analyzed as previously described by our group ([Wang et al., 2021]). Briefly, the regions of interest (ROIs) were cycled from 3D ordered subset expectation maximization (OSEM 3D) reconstruction images, then % ID/g value was calculated by Inveon Research Workplace 4.0 (IRW4.0).
# α7nAChR [4] = target: T1, α7nAChR (Oryctolagus cuniculus, UniProt A0A0H4CUK0); test: PET/CT imaging of abdominal aorta atherosclerotic plaques in New Zealand rabbits; assay type: in vivo; settings: model rabbits, PET/CT 30 min after injection
# T1 construct: from tissue; host or cells: living New Zealand rabbits (abdominal aorta with atherosclerotic plaques)
# T1 sequence (A0A0H4CUK0 25-504): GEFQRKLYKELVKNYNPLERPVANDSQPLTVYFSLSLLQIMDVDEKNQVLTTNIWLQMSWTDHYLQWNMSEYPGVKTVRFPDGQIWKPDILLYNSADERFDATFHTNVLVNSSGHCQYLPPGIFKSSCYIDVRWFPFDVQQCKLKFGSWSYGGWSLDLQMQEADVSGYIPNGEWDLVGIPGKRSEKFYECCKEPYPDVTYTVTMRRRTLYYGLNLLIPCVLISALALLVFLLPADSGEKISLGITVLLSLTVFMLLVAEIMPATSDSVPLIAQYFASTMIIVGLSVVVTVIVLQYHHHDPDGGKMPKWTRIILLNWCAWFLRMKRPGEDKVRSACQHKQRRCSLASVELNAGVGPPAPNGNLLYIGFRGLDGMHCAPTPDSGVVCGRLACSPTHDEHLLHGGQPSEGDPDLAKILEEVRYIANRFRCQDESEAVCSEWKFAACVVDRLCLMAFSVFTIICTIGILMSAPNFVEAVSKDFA
# Description: New Zealand rabbits (n = 4; weight, 2.5–3.0 kg) were fed with high-fat diet for 14 weeks. The balloon-sprained and injured experiment was carried out at the third week after 2 weeks of high-fat diet. First, rabbits were anesthetized by 10% chloral hydrate, a 3-cm incision was conducted in the right inguinal area to expose the right femoral artery; then, the right femoral artery was punctured by Seldinger technique. Second, an angiographic catheter with double lumen balloon was sent to the aortic arch under fluoroscopy. Third, the balloon was bulged and pulled down to the bifurcation of the distal iliac artery of the abdominal aorta for three times. Lastly, the catheter and sheath were removed, and the operational incisions were sutured (Figure 2).
# First, rabbits (n = 4) were anesthetized by 10% chloral hydrate (2 ml/kg). Then, ^18F-ASEM solution (74 MBq in 0.2 ml normal saline) was injected into the right ear vein of rabbits. After that, the imaging procedure was conducted 30 min after injection of ^18F-ASEM and lasted for 10 min performed by PET/CT (Discovery IQ 2.0 GE). The injection of ^18F-FDG (74 MBq in 0.2 ml normal saline) and PET/CT imaging were performed in the same strategy on the next day. The reconstruction mode was super iterative. The % ID/g value was worked out in the same protocol as mentioned above through IRW 4.0 software.
# α7nAChR [5] = tested on: α7nAChR; set-up: method as in Gao et al., 2013; Wang et al., 2018; settings: specificity for α7nAChR; ref Gao et al., 2013; Wang et al., 2018; cited from earlier work
compound,measurement,setting,value
O=S1(=O)c2cc(N3CCN4CCC3CC4)ccc2-c2cccc(F)c21 [^18F-ASEM],Ki,α7nAChR [1],0.4 nM
O=S1(=O)c2cc(N3CCN4CCC3CC4)ccc2-c2cccc([18F])c21 [^18F-ASEM],time of peak uptake in the kidney,[2]; after injection,5 min
same,time of peak uptake in the liver,[2]; after injection,15 min
same,uptake in the muscle,[2]; compared with other organs,lowest uptake
same,uptake in the arteries,α7nAChR [3]; ApoE–/– mice,4.05 ± 0.64 ID%/g
same,uptake in the arteries,"α7nAChR [3]; ApoE–/– mice, 5 min after injection",4.39 ± 1.08 ID%/g
same,uptake in the arteries,"α7nAChR [3]; ApoE–/– mice, 15 min after injection",4.20 ± 0.46 ID%/g
same,uptake in the arteries,"α7nAChR [3]; ApoE–/– mice, 60 min after injection",3.80 ± 0.43 ID%/g
same,uptake in the carotid artery (PET imaging),α7nAChR [3]; ApoE–/– mouse,more ^18F-ASEM gathering
same,uptake in the arteries,α7nAChR [3]; control group mice,2.40 ± 0.41 ID%/g
same,uptake in the arteries,"α7nAChR [3]; control group mice, 5 min after injection",2.35 ± 0.58 ID%/g
same,uptake in the arteries,"α7nAChR [3]; control group mice, 15 min after injection",2.46 ± 0.34 ID%/g
same,uptake in the arteries,"α7nAChR [3]; control group mice, 60 min after injection",2.70 ± 0.28 ID%/g
same,PET signal in the normal group,α7nAChR [3]; normal mice,no signal
same,uptake in plaques at abdominal arterial scratches zones,α7nAChR [4],remarkable uptake
same,BPND,α7nAChR [5],3.9–6.6
^18F-FDG,uptake in the carotid artery (PET imaging),"α7nAChR [3]; mouse, in vivo",slight
